Marks after values point to notes of the source that are not given here.
Columns and labels:
Type in all cases: in vivo, Sprague-Dawley rats
osteopenic rats = experiment: Micro-CT of distal femur metaphysis; details: continuous treatment, 1a 0.01-1 mg/kg, 17α-ethynyl estradiol 0.1 mg/kg, PTH (1-34), 1a 0.3 mg/kg with PTH (1-34), FIG. 2
Experimental: The metaphysis of proximal tibiae were scanned longitudinally from baseline, using a 960A pQCT loaded with Dichte software version 5.2 (Norland/Stratec, Ft. Atkinson, Wis.), using the technique described by Sato et al., —1995, JPET 272:1252-1259; Sato 1995, Bone 17:157S-162S). Volumetric bone mineral density (BMD, mg/cm3), cross-sectional area (X-Area), voxel number, and mineral content (BMC, mg) were quantitated for the whole cross-section of the metaphysis. Sites of excised bones were analyzed at higher resolution, using a micro-CT (Stratec). Specifically, distal femora (below the condyles, see Sato et al. 1995) and L-3 vertebra (mid-cross section, Helterbrand et al., 1997, Bone 21:401-409) were analyzed using voxel dimensions of 50 ×50×1000 μm and 70×70×1000 μm, respectively.
In a second study, virgin Sprague-Dawley rats were bilaterally ovariectomized (except for the sham-operated group), the ovariectomized animals randomized, and allowed to lose bone for one month prior to treatment in the manner described above. […]

[1] = test system: osteopenic ovariectomized rats; experiment: Femoral neck strength (shear loading of proximal femur); set-up: Neck Fu (ultimate force): unit not given beside the values; details: OVX rats; for Neck Fu (ultimate force): proximal femora in shear, mean ± SEM
Experimental: Femoral neck strength was measured by mounting the proximal half of the femur vertically in a chuck and applying downward force at a rate of 1 mm/sec on the femoral head until the neck failed. The ultimate load was calculated as the maximum force sustained by the femoral neck. All tests were done at room temperature using the MTS system.
(§1) In a second study, virgin Sprague-Dawley rats were bilaterally ovariectomized (except for the sham-operated group), the ovariectomized animals randomized, and allowed to lose bone for one month prior to treatment in the manner described above. The animal groups, each containing 7-8 animals, included sham-operated animals (SHAM); bilaterally ovariectomized animals (OVX); bilaterally ovariectomized animals treated with 0.01, 0.3 or 1 mg/kg/day of compound 1a, respectively, for three months; bilaterally ovariectomized animals treated subcutaneously with PTH(1-34) at a dose of 10 μg/kg/day for three months; bilaterally ovariectomized animals treated subcutaneously with PTH(1-34) at a dose of 10 μg/kg/day and orally with compound 1a at a dose of 0.3 mg/kg/day, both compounds administered for three months; bilaterally ovariectomized animals treated subcutaneously with PTH(1-34) at a dose of 10 μg/kg/day for forty-five days followed by gavage administration of vehicle for forty-five days; bilaterally ovariectomized animals treated subcutaneously with PTH(1-34) at a dose of 10 μg/kg/day for forty-five days followed by oral administration of only compound 1a at a dose of 0.3 mg/kg/day for forty-five days; and bilaterally ovariectomized animals treated with 17α-ethynyl estradiol administered orally at a dose of 0.1 mg/kg/day.

[2] = test system: osteopenic ovariectomized rats; experiment: Three point bending test of femora mid-shaft; set-up: I (moment of inertia): unit not given beside the values; details: OVX rats; for E (Young's modulus) / Fu (ultimate force) / I (moment of inertia) / t (cortical thickness) / u (toughness) / σu (strength): femora mid-shaft, mean ± SEM; for load to failure (Fu) and toughness of femora mid-shaft (in words): 1a dose-dependent up to 1 mg/kg, EE2 0.1 mg/kg, PTH (1-34) 45 and 90 days, combination
Experimental: Bone strength was measured for the femoral neck, midshaft, and the L-6 vertebra. Femora were thawed before testing, and bone strength was measured on intact femora using a three point bending test. Load was applied midway between two supports that were 15 mm apart. The femora were positioned so the loading point was 7.5 mm proximal from the distal popliteal space and bending occurred about the medial-lateral axis. Specimens were tested in a saline bath at 37° C. Each specimen was submerged in the saline bath for three minutes before testing to allow equilibration of temperature. Load-displacement curves were recorded at a crosshead speed of 1 mm/sec using a servo-hydraulic materials testing machine (MTS Corp., Minneapolis, Minn.) and an x-y recorder (Hewlett Packard 7090A, Palo Alto, Calif.). The measurements included: cross-sectional moment of inertia (I), cortical thickness (t), ultimate load (Fu), ultimate stress (σu), Young's modulus (E), and toughness (u). These values were calculated as described previously (Turner and Burr 1993; Turner et al. 1996).
as §1

[3] = test system: osteopenic ovariectomized rats; experiment: Compression testing of L-6 vertebra; details: OVX rats; for vertebral strength (Su) and toughness of L-6 vertebra (in words): continuous treatment (PTH 90 days); for Vert E (Young's modulus) / Vert u (toughness) / Vert σu (vertebral strength): lumbar vertebra in compression, mean ± SEM
Experimental: Bone strength of L-6 vertebrae was measured after the posterior processes were removed and the ends of the centrum made parallel using a diamond wafering saw (Buehler Isomet, Evanston, Ill.). Ultimate stress (σu) Young's modulus (E), and toughness (u) for each vertebra was measured in compression at a load rate of 50 N/sec using the MTS machine. The compressive load was applied through a pivoting platen to correct for nonparallel alignment of the faces of the vertebral body (Turner and Burr, 1993).
Specimens were tested in saline solution at 37° C. Ultimate stress was calculated as the maximum load divided by the gross cross-sectional area πAB/4, where A and B are the vertebral widths in the anterior-posterior and medial lateral directions. Young's modulus was calculated by multiplying stiffness times 4T/πAB, where T is the specimen thickness. Toughness was calculated as the area under the load-displacement curve divided by πABT/4.
as §1

[4] = 3 months: PTH (1-34) 10 μg/kg/day s.c., 1a 0.3 mg/kg/day oral + PTH, EE2 0.1 mg/kg/day oral
[5] = PTH (1-34) 10 μg/kg/day s.c. 45 days, then vehicle or 1a 0.3 mg/kg/day oral 45 days
[6] = PTH (1-34) discontinued after 45 days or switched to compound 1a
[7] = continuous treatment (PTH 90 days)
[8] = Cmpd. 1a 0.01 mg/kg/day oral, 3 months
[9] = Cmpd. 1a 0.3 mg/kg/day oral, 3 months
[10] = Cmpd. 1a 1 mg/kg/day oral, 3 months
[11] = Cmpd 1a 0.01 mg/kg/day oral, 3 months
[12] = Cmpd 1a 0.3 mg/kg/day oral, 3 months
[13] = Cmpd 1a 1 mg/kg/day oral, 3 months

PTH: N-terminal 1-34 fragment of human parathyroid hormone, hPTH(1-34, Sequence ID No. 3); PTH/vehicle = 45 days PTH then vehicle
BMD of distal femur metaphysis (micro-CT) (osteopenic rats): increased BMD was observed to levels significantly beyond OVX, Sham, and baseline levels
ultimate load for the femora neck (in words) [1]: higher than OVX and Sham
Neck Fu (ultimate force) [1, 4]: 148 ± 2.6^s,o
Neck Fu (ultimate force) [1, 5]: 116 ± 6.2
cortical thickness of femora mid-shaft (in words) [2, 6]: lowered cortical thickness to below Sham
cortical thickness of femora mid-shaft (in words) [2, 7]: increased cortical thickness above OVX
E (Young's modulus) [2, 4]: 9854 ± 597
Fu (ultimate force) [2, 4]: 202 ± 7^o
I (moment of inertia) [2, 4]: 4.86 ± .26
t (cortical thickness) [2, 4]: .739 ± .023^o
u (toughness) [2, 4]: 5.24 ± .52^o
σu (strength) [2, 4]: 234 ± 9^o
E (Young's modulus) [2, 5]: 8516 ± 580
Fu (ultimate force) [2, 5]: 171 ± 4^o
I (moment of inertia) [2, 5]: 4.72 ± .17
t (cortical thickness) [2, 5]: .630 ± .010^s
u (toughness) [2, 5]: 3.81 ± .24^s,o
σu (strength) [2, 5]: 205 ± 6^s,o
load to failure (Fu) and toughness of femora mid-shaft (in words) [2]: improved Fu to above OVX
vertebral strength (Su) of L-6 vertebra (in words) [3, 6]: lowered Su to below Sham
vertebral strength (Su) and toughness of L-6 vertebra (in words) [3]: increased Su and toughness to above OVX and Sham levels
Vert E (Young's modulus) [3, 4]: 686 ± 77
Vert u (toughness) [3, 4]: 3.68 ± 1.10^s,o
Vert σu (vertebral strength) [3, 4]: 45.5 ± 2.4^s,o
Vert E (Young's modulus) [3, 5]: 524 ± 109
Vert u (toughness) [3, 5]: 1.16 ± 0.22
Vert σu (vertebral strength) [3, 5]: 24.2 ± 2.5^s

C#C[C@]1(O)CC[C@H]2[C@@H]3CCc4cc(O)ccc4[C@H]3CC[C@@]21C [EE2, 17α-ethynyl estradiol]
BMD of distal femur metaphysis (micro-CT) (osteopenic rats): prevented further bone loss
Neck Fu (ultimate force) [1, 4]: 110 ± 6.1
cortical thickness of femora mid-shaft (in words) [2, 7]: intermediate between Sham and OVX
E (Young's modulus) [2, 4]: 10002 ± 844
Fu (ultimate force) [2, 4]: 182 ± 11^o
I (moment of inertia) [2, 4]: 4.42 ± .33
t (cortical thickness) [2, 4]: .686 + .015^o
u (toughness) [2, 4]: 4.62 ± .52^o
σu (strength) [2, 4]: 225 ± 13^o
load to failure (Fu) and toughness of femora mid-shaft (in words) [2]: above OVX and not different from Sham
Vert E (Young's modulus) [3, 4]: 579 ± 94
Vert u (toughness) [3, 4]: 1.44 ± 0.37
Vert σu (vertebral strength) [3, 4]: 28.1 ± 2.6^o

COc1ccc(-c2sc3cc(O)ccc3c2Oc2ccc(OCCN3CCCCC3)cc2)cc1 [Compound 1a, 6-hydroxy-2-(4-methoxyphenyl)-3-[4-(2-piperidin-1-ylethoxy)phenoxy]-benzo[b]thiophene]
BMD of distal femur metaphysis (micro-CT) (osteopenic rats): prevented further bone loss
Neck Fu (ultimate force) [1, 8]: 112 ± 4.7
Neck Fu (ultimate force) [1, 9]: 114 ± 5.1
Neck Fu (ultimate force) [1, 10]: 117 ± 3.1
cortical thickness of femora mid-shaft (in words) [2, 7]: intermediate between Sham and OVX
E (Young's modulus) [2, 11]: 9081 ± 446
Fu (ultimate force) [2, 11]: 160 ± 5^s
I (moment of inertia) [2, 11]: 4.35 ± .21
t (cortical thickness) [2, 11]: .635 ± .020^s,o
u (toughness) [2, 11]: 3.72 ± .26^s,o
σu (strength) [2, 11]: 199 ± 5^s,o
E (Young's modulus) [2, 12]: 8844 ± 431
Fu (ultimate force) [2, 12]: 164 ± 4^s,o
I (moment of inertia) [2, 12]: 4.05 ± .17^o
t (cortical thickness) [2, 12]: .654 ± .012^s,o
u (toughness) [2, 12]: 4.13 ± .24^o
σu (strength) [2, 12]: 217 ± 5^o
E (Young's modulus) [2, 13]: 10087 ± 520
Fu (ultimate force) [2, 13]: 174 ± 4^o
I (moment of inertia) [2, 13]: 4.17 ± .21
t (cortical thickness) [2, 13]: .671 ± .010^s,o
u (toughness) [2, 13]: 4.52 ± .25^o
σu (strength) [2, 13]: 228 ± 9^o
load to failure (Fu) and toughness of femora mid-shaft (in words) [2]: improved load to failure (Fu) and toughness in a dose-dependent manner to above OVX and not different from Sham at 1 mg/kg
vertebral strength (Su) and toughness of L-6 vertebra (in words) [3]: improved vertebral strength (Su) and toughness in a dose-dependent manner to above OVX
Vert E (Young's modulus) [3, 8]: 540 ± 72
Vert u (toughness) [3, 8]: 1.72 ± 0.44
Vert σu (vertebral strength) [3, 8]: 24.8 ± 2.3^s
Vert E (Young's modulus) [3, 9]: 436 ± 76
Vert u (toughness) [3, 9]: 1.97 ± 0.37
Vert σu (vertebral strength) [3, 9]: 28.3 ± 1.9^o
Vert E (Young's modulus) [3, 10]: 384 ± 30
Vert u (toughness) [3, 10]: 2.30 ± 0.29^o
Vert σu (vertebral strength) [3, 10]: 27.8 ± 1.5^o

Reference: patent US20020025929A1, “METHOD OF BUILDING AND MAINTAINING BONE” (priority 1997, published 2002)
